The test system of assay [1] is SDMA signal (PRMT5 inhibition) in HCT116 MTAP-deleted cells. The assay is described as follows: Symmetric di-methyl arginine image-based high content screen assay (SDMA assay), HCT116 MTAP-deleted. It counts as cell-based. Particulars: SDMA assay; for EC50: Homo sapiens, HCT-116, 72 h, 3 days of treatment, cell line not given, taken as HCT116 MTAP-deleted, read-out: EC50 (SDMA assay); for EC50 selectivity (SDMA assay): taken as HCT116 WT versus MTAP-deleted. The essentials: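 Read-out: per-cell mean SDMA immunofluorescence (Alexa Fluor 488 secondary), cells segmented by DAPI on a high-content imager. Compound exposure in HCT116 MTAP-deleted cells lasted until fixation on Day 3; overnight 4° C primary anti-SDMA antibody staining.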

In assay [2] the test system is HCT116 MTAP-deleted cells. Briefly: Cell viability assay (CellTiter-Glo, 7 days), HCT116 MTAP-deleted. Particulars: Homo sapiens, HCT-116, 168 h.

SMILES strings stand for the structures.

As to `[2H]C([2H])([2H])n1ncc2c(N)nc3ccc(C(=O)N(Cc4ccc(C(F)(F)F)cc4F)N(C)C(C)=O)cc3c21` [Example 270, N′-acetyl-4-amino-N-(2-fluoro-4-(trifluoromethyl)benzyl)-N′-methyl-1-(methyl-d3)-1H-pyrazolo[4,3-c]quinoline-8-carbohydrazide], in assay [1], the EC50 (usually the concentration that produces a half-maximal response) was < 1 nM and the “EC50 selectivity (SDMA assay)” value turned out to be 129. In assay [2], the CC50 (as a rule, the concentration at which the toxic effect on the cells reaches its halfway point) is < 100 nM.
As for `Cn1ncc2c(N)nc3ccc(C(=O)N(Cc4csc(C(F)(F)F)n4)N4CCCOC4=O)cc3c21` [Example 136, 4-amino-1-methyl-N-(2-oxo-1,3-oxazinan-3-yl)-N-((2-(trifluoromethyl)thiazol-4-yl)methyl)-1H-pyrazolo[4,3-c]quinoline-8-carboxamide], in assay [1], the EC50 lay in the range of 1 to 5 nM and the “EC50 selectivity (SDMA assay)” value stood at 724. The CC50 in assay [2] lay within 100 to 1000 nM.
For `CN(C(=O)c1cocn1)N(Cc1ccc(C(F)(F)F)cn1)C(=O)c1ccc2nc(N)c3cnn(C)c3c2c1` [Example 105, N′-(4-amino-1-methyl-1H-pyrazolo[4,3-c]quinoline-8-carbonyl)-N-methyl-N′-((5-(trifluoromethyl)pyridin-2-yl)methyl)oxazole-4-carbohydrazide] the same measures were < 1 nM, 15 and < 100 nM.
`Nc1nc2ccc(C(=O)N(Cc3ccc(C(F)(F)F)cn3)N3CCCCC3=O)cc2c2c1COC2` [Example 30, 4-amino-N-(2-oxo-1-piperidyl)-N-[[5-(trifluoromethyl)-2-pyridyl]methyl]-1,3-dihydrofuro[3,4-c]quinoline-8-carboxamide]: in assay [1], the EC50 was < 1 nM and the “EC50 selectivity (SDMA assay)” value stood at 101. In addition, the CC50 in assay [2] was < 100 nM.
The matching figures for `Cn1ncc2c(N)nc3ccc(C(=O)N(Cc4nc5cc(Cl)ccc5n4C)N4CCCCC4=O)cc3c21` [Example 211, 4-amino-N-((5-chloro-1-methyl-1H-benzo[d]imidazol-2-yl)methyl)-1-methyl-N-(2-oxopiperidin-1-yl)-1H-pyrazolo[4,3-c]quinoline-8-carboxamide]: < 1 nM, 142 and < 100 nM.
For `CCC(=O)N(CC)N(Cc1ccc(C(F)(F)F)cn1)C(=O)c1ccc2nc(N)c3cnn(C)c3c2c1` [Example 287, 4-amino-N′-ethyl-1-methyl-N′-propionyl-N-((5-(trifluoromethyl)pyridin-2-yl)methyl)-1H-pyrazolo[4,3-c]quinoline-8-carbohydrazide] the same measures were 1 to 5 nM, 174 and < 100 nM.
On to `Cn1ncc2c(N)nc3ccc(C(=O)N(Cc4ccc(C(F)(F)F)nc4)N4CCCC4=O)cc3c21` [Example 392, 4-amino-1-methyl-N-(2-oxopyrrolidin-1-yl)-N-[[6-(trifluoromethyl)-3-pyridyl]methyl]pyrazolo[4,3-c]quinoline-8-carboxamide], for which, in assay [1], the concentration giving a half-maximal response (EC50) is 1 to 5 nM and the “EC50 selectivity (SDMA assay)” value was found to be 285. The CC50 in assay [2] was < 100 nM.
In the case of `Cn1ncc2c(N)nc3ccc(C(=O)N(Cc4ccc(C(F)(F)F)cn4)N4Cc5ccccc5C4=O)cc3c21` [Example 35, 4-amino-1-methyl-N-(1-oxoisoindolin-2-yl)-N-[[5-(trifluoromethyl)-2-pyridyl]methyl]pyrazolo[4,3-c]quinoline-8-carboxamide], in assay [1], the EC50 is < 1 nM and the “EC50 selectivity (SDMA assay)” value was 103. Further, the CC50 in assay [2] is < 100 nM.
For the molecule `CC(=O)N(C)N(Cc1nc2ccc(F)cc2s1)C(=O)c1cc2c(cc1F)nc(N)c1cnn(C)c12` [Example 214, N′-acetyl-4-amino-7-fluoro-N-[(6-fluoro-1,3-benzothiazol-2-yl)methyl]-N′,1-dimethyl-pyrazolo[4,3-c]quinoline-8-carbohydrazide], in assay [1], the EC50 was < 1 nM and the “EC50 selectivity (SDMA assay)” value came out at 74. In addition, the CC50 in assay [2] was < 100 nM.
In the case of `CC(=O)N(C)N(Cc1ccc(C(F)(F)F)cn1)C(=O)c1ccc2nc(N)c3c(c2c1)COC3` [Example 168, N′-acetyl-4-amino-N′-methyl-N-[[5-(trifluoromethyl)-2-pyridyl]methyl]-1,3-dihydrofuro[3,4-c]quinoline-8-carbohydrazide], in assay [1], the concentration giving a half-maximal response (EC50) is < 1 nM and the “EC50 selectivity (SDMA assay)” value amounted to 97. In addition, in assay [2], the CC50 is < 100 nM.
Turning to `Cc1scnc1C(=O)N(C)N(Cc1ccc(C(F)(F)F)cn1)C(=O)c1ccc2nc(N)c3cnn(C)c3c2c1` [Example 226, N′-(4-amino-1-methyl-1H-pyrazolo[4,3-c]quinoline-8-carbonyl)-N,5-dimethyl-N′-((5-(trifluoromethyl)pyridin-2-yl)methyl)thiazole-4-carbohydrazide], in assay [1], the EC50 was in the range of 1 to 5 nM and the “EC50 selectivity (SDMA assay)” value is on record as 86. Further, the 50% cytotoxic concentration (CC50) in assay [2] is < 100 nM.
